The values below come from ChEMBL document CHEMBL1146722, “Synthesis and antibacterial activity of 6-O-arylpropargyl-9-oxime-11,12-carbamate ketolides” (2004).

Holding throughout (assay type): functional
For assay [1], the system named is Streptococcus pyogenes. The experiment in a line: In vitro antibacterial activity against Streptococcus pyogenes PIU 2548.
For assay [2], the system named is Streptococcus pyogenes. The experiment in a line: In vitro antibacterial activity against Streptococcus pyogenes EES61.
In assay [3] the test system is Staphylococcus aureus. The experiment in a line: In vitro antibacterial activity against Staphylococcus aureus 1775 strain.
Assay [4] relates to Streptococcus pyogenes. In words: In vitro antibacterial activity against Streptococcus pyogenes 930.
Assay [5] relates to Streptococcus pneumoniae. The experiment in a line: In vitro antibacterial activity against Streptococcus pneumoniae 5979.
Assay [6] relates to Streptococcus pneumoniae. The experiment in a line: In vitro antibacterial activity against Streptococcus pneumoniae ATCC 6303.
Assay [7] relates to Haemophilus influenzae. The experiment in a line: In vitro antibacterial activity against Haemophilus influenzae GYR1435.
The subject of assay [8] is Streptococcus pneumoniae. The experiment in a line: In vitro antibacterial activity against Streptococcus pneumoniae 5649.
Assay [9] deals with Staphylococcus aureus. The experiment in a line: In vitro antibacterial activity against Staphylococcus aureus A5177 strain.
The subject of assay [10] is Staphylococcus aureus. The experiment in a line: In vitro antibacterial activity against Staphylococcus aureus NCTC 10649M strain.

≈ marks a conversion by molar mass, not a printed value.

As to `CC[C@H]1OC(=O)[C@H](C)C(=O)[C@H](C)[C@@H](OC2O[C@H](C)C[C@H](N(C)C)[C@H]2O)[C@@](C)(OCC#Cc2ccc3nccnc3c2)C[C@@H](C)/C(=N\OC)[C@H](C)[C@H]2NC(=O)O[C@@]21C` (stereo not given in full), the MIC in [1] is 0.5 µg/mL (≈ 0.63 µM); in assay [2], 8 ng/mL (≈ 0.0101 µM); in assay [3], more than 128 µg/mL; in assay [4], 8 µg/mL (≈ 10.1 µM); in assay [5], 0.25 µg/mL (≈ 0.315 µM); in assay [6], 8 ng/mL (≈ 0.0101 µM). For the same molecule, the MIC turned out to be 8 µg/mL (≈ 10.1 µM) in assay [7], 0.125 µg/mL (≈ 0.157 µM) in assay [8], 0.008 µg/mL (≈ 0.0101 µM) in [9] and 0.25 µg/mL (≈ 0.315 µM) in assay [10].

In the case of `CC[C@H]1OC(=O)[C@H](C)C(=O)[C@H](C)[C@@H](O[C@@H]2O[C@H](C)C[C@H](N(C)C)[C@H]2O)[C@](C)(OC)C[C@@H](C)C(=O)[C@H](C)[C@H]2N(CCCCn3cnc(-c4cccnc4)c3)C(=O)O[C@]12C` [TELITHROMYCIN], the MIC in assay [1] was 2 µg/mL (≈ 2.46 µM); in assay [2], 4 ng/mL (≈ 0.00493 µM); in assay [3], more than 100 µg/mL; in assay [4] it was 8 µg/mL (≈ 9.85 µM); in assay [5], 8 µg/mL (≈ 9.85 µM); in [6], 4 ng/mL (≈ 0.00493 µM). The MIC in assay [7] amounted to 2 µg/mL (≈ 2.46 µM); in assay [8] it was 0.5 µg/mL (≈ 0.616 µM); in assay [9] it was 0.1 µg/mL (≈ 0.123 µM); in [10], 0.1 µg/mL (≈ 0.123 µM).

Consider `CC[C@H]1OC(=O)[C@@](C)(F)C(=O)[C@H](C)[C@@H](OC2O[C@H](C)C[C@H](N(C)C)[C@H]2O)[C@@](C)(OCC#Cc2ccc(-c3nnn(C)n3)s2)C[C@@H](C)/C(=N\OC)[C@H](C)[C@H]2NC(=O)O[C@@]21C` (stereo not given in full), for which the MIC came to 0.5 µg/mL (≈ 0.59 µM) in assay [1]; 8 ng/mL (≈ 0.00943 µM) in [2]; 64 µg/mL (≈ 75.5 µM) in assay [3]; 8 µg/mL (≈ 9.43 µM) in [4]; 0.25 µg/mL (≈ 0.295 µM) in [5]; 8 ng/mL (≈ 0.00943 µM) in [6]. Further, the MIC was 8 µg/mL (≈ 9.43 µM) in assay [7], 0.125 µg/mL (≈ 0.147 µM) in assay [8], 0.25 µg/mL (≈ 0.295 µM) in assay [9] and 1 µg/mL (≈ 1.18 µM) in assay [10].

Turning to `CC[C@H]1OC(=O)[C@H](C)[C@@H](O[C@H]2C[C@@](C)(OC)[C@@H](O)[C@H](C)O2)[C@H](C)[C@@H](O[C@@H]2O[C@H](C)C[C@H](N(C)C)[C@H]2O)[C@](C)(O)C[C@@H](C)C(=O)[C@H](C)[C@@H](O)[C@]1(C)O` [ERYTHROMYCIN], the MIC is 8 µg/mL (≈ 10.9 µM) in [1]; 15 ng/mL (≈ 0.0204 µM) in [2]; more than 128 µg/mL in [3]; more than 128 µg/mL in assay [4]; more than 128 µg/mL in [5]; 15 ng/mL (≈ 0.0204 µM) in assay [6]. The MIC in assay [7] is 4 µg/mL (≈ 5.45 µM); in [8], 4 µg/mL (≈ 5.45 µM); in [9], more than 128 µg/mL; in assay [10], 0.5 µg/mL (≈ 0.681 µM).

Consider `CC[C@H]1OC(=O)[C@H](C)C(=O)[C@H](C)[C@@H](OC2O[C@H](C)C[C@H](N(C)C)[C@H]2O)[C@@](C)(OCC#Cc2cnc3cccnc3c2)C[C@@H](C)/C(=N\OC)[C@H](C)[C@H]2NC(=O)O[C@@]21C` (stereo not given in full), for which the MIC in assay [1] was 0.06 µg/mL (≈ 0.0756 µM); in assay [2], 8 ng/mL (≈ 0.0101 µM); in assay [3] it was more than 128 µg/mL; in assay [4] it was 0.5 µg/mL (≈ 0.63 µM); in [5] it was 1 µg/mL (≈ 1.26 µM); in assay [6], 8 ng/mL (≈ 0.0101 µM). Also, the MIC in assay [7] turned out to be 2 µg/mL (≈ 2.52 µM); in assay [8], 0.03 µg/mL (≈ 0.0378 µM); in assay [9], 0.008 µg/mL (≈ 0.0101 µM); in assay [10], 1 µg/mL (≈ 1.26 µM).

`CC[C@H]1OC(=O)[C@H](C)C(=O)[C@H](C)[C@@H](OC2O[C@H](C)C[C@H](N(C)C)[C@H]2O)[C@@](C)(OCC#Cc2ccc(-c3nnn(C)n3)s2)C[C@@H](C)/C(=N\OC)[C@H](C)[C@H]2NC(=O)O[C@@]21C` (stereo not given in full): the MIC in [1] is 0.125 µg/mL (≈ 0.151 µM); in assay [2], 8 ng/mL (≈ 0.00964 µM); in assay [3] it was 128 µg/mL (≈ 154 µM); in assay [4], 32 µg/mL (≈ 38.6 µM); in assay [5] it was 0.5 µg/mL (≈ 0.602 µM); in assay [6], 8 ng/mL (≈ 0.00964 µM). Moreover, the MIC in assay [7] was determined as 4 µg/mL (≈ 4.82 µM); in [8], 0.06 µg/mL (≈ 0.0723 µM); in assay [9], 0.008 µg/mL (≈ 0.00964 µM); in assay [10] it was 0.25 µg/mL (≈ 0.301 µM).

As to `CC[C@H]1OC(=O)[C@H](C)C(=O)[C@H](C)[C@@H](OC2O[C@H](C)C[C@H](N(C)C)[C@H]2O)[C@@](C)(OCC#Cc2cnc3ccccc3c2)C[C@@H](C)/C(=N\OC)[C@H](C)[C@H]2NC(=O)O[C@@]21C` (stereo not given in full), the MIC came out at 0.125 µg/mL (≈ 0.158 µM) in assay [1]; 8 ng/mL (≈ 0.0101 µM) in assay [2]; 128 µg/mL (≈ 161 µM) in [3]; 1 µg/mL (≈ 1.26 µM) in [4]; 0.25 µg/mL (≈ 0.315 µM) in assay [5]; 8 ng/mL (≈ 0.0101 µM) in [6]. The MIC in [7] amounted to 4 µg/mL (≈ 5.04 µM); in [8], 0.125 µg/mL (≈ 0.158 µM); in assay [9], 0.25 µg/mL (≈ 0.315 µM); in assay [10], 1 µg/mL (≈ 1.26 µM).

As for `CC[C@H]1OC(=O)[C@@](C)(F)C(=O)[C@H](C)[C@@H](OC2O[C@H](C)C[C@H](N(C)C)[C@H]2O)[C@@](C)(OCC#Cc2cnc3ccccc3c2)C[C@@H](C)/C(=N\OC)[C@H](C)[C@H]2NC(=O)O[C@@]21C` (stereo not given in full), the MIC in assay [1] worked out at 0.25 µg/mL (≈ 0.308 µM); in assay [2] it was 8 ng/mL (≈ 0.00986 µM); in [3], 64 µg/mL (≈ 78.9 µM); in assay [4], 0.5 µg/mL (≈ 0.617 µM); in assay [5] it was 0.125 µg/mL (≈ 0.154 µM); in [6] it was 8 ng/mL (≈ 0.00986 µM). Also, the MIC in assay [7] is 4 µg/mL (≈ 4.93 µM); in assay [8], 0.125 µg/mL (≈ 0.154 µM); in assay [9] it was 0.25 µg/mL (≈ 0.308 µM); in assay [10], 0.5 µg/mL (≈ 0.617 µM).

As for `CC[C@H]1OC(=O)[C@H](C)C(=O)[C@H](C)[C@@H](OC2O[C@H](C)C[C@H](N(C)C)[C@H]2O)[C@@](C)(OCC#Cc2ccc(-c3ccccn3)s2)C[C@@H](C)/C(=N\OC)[C@H](C)[C@H]2NC(=O)O[C@@]21C` (stereo not given in full), the MIC in assay [1] was determined as 0.03 µg/mL (≈ 0.0364 µM); in assay [2] it was 8 ng/mL (≈ 0.0097 µM); in assay [3] it was 64 µg/mL (≈ 77.6 µM); in [4] it was 16 µg/mL (≈ 19.4 µM); in assay [5], 0.008 µg/mL (≈ 0.0097 µM); in assay [6] it was 8 ng/mL (≈ 0.0097 µM). Besides, the MIC in assay [7] worked out at 4 µg/mL (≈ 4.85 µM); in assay [8] it was 0.008 µg/mL (≈ 0.0097 µM); in [9], 0.008 µg/mL (≈ 0.0097 µM); in assay [10] it was 0.25 µg/mL (≈ 0.303 µM).
